Active and inactive are the calls of the source.
What was measured:
[1] = biological target: DNA damage-inducible transcript 3 protein (Mus musculus, UniProt P35639); type: functional, Cricetulus griseus
HEK293 [2] = test: NOD1 signaling inhibitors, primary screen, cell-based, luminescence, uHTS (AID 1578); type: functional; conditions: Homo sapiens
HEK293 [3] = test: cells; type: functional, cell-based; conditions: Homo sapiens
HEK293 [4] = test: cells; type: functional, cell-based; conditions: Homo sapiens; remark: listed apart in the source
[5] = biological target: Nucleotide-binding oligomerization domain-containing protein 2 (Homo sapiens, UniProt Q9HC29); test: NOD2 signaling inhibitors, cell-based, luminescence, uHTS, HEK293 (AID 1566); type: functional
HEK293 [6] = test: NOD2 signaling inhibitors in MDP-stimulated cells, cell-based, uHTS, luminescence (AID 2001); type: functional; conditions: Homo sapiens
HEK293 [7] = test: cells; type: functional, cell-based; conditions: Homo sapiens; remark: listed apart in the source
[8] = biological target: T1, Carboxy-terminal domain RNA polymerase II polypeptide A small phosphatase 1 (Homo sapiens, UniProt Q9GZU7); test: inhibitors of CTDSP1, concentration-response testing, biochemical assay, absorbance-based, actives from ultra-high-throughput screening (AID 540297); type: functional
T1 sequence (Q9GZU7 whole entry): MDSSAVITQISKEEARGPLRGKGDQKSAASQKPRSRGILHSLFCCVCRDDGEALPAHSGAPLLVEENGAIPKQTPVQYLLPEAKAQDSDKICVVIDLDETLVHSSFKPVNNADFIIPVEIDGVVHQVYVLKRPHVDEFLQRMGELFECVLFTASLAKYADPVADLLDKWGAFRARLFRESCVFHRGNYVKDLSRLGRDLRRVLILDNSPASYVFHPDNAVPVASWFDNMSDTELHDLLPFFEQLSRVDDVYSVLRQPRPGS

[9] = biological target: T2, Voltage-gated N-type calcium channel alpha-1B subunit/Amyloid beta A4 precursor protein-binding family A member 1 (Homo sapiens, UniProt Q00975+Q02410); type: protein assay
Large T antigen = Large T antigen (Simian virus 40, UniProt P03070); type: functional, Betapolyomavirus macacae;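 also: Confirmatory-stage PubChem screen for compounds that inhibit SV40 T antigen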
[10] = biological target: T2, Voltage-gated N-type calcium channel alpha-1B subunit/Amyloid beta A4 precursor protein-binding family A member 1; type: protein assay; remark: listed apart in the source
[11] = growth suppression of PTEN-null colon cells, dose response, cell-based, HCT116 PTEN knockout (AID 1047); type: functional;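 also: HCT116 colon tumor cells with PTEN knocked out; cells exposed to compound for 60 hours before readout; potency for loss of cell viability measured by luminescence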
[12] = growth suppression of beta-catenin-knockout colon cells, dose response, cell-based, HCT116, human colon tumor (AID 1045); type: functional;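 also: HCT116 colon tumor cells with beta catenin knocked out; cells exposed to compound for 60 hours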
[13] = THP-1 cell cytotoxicity, dose response, cytotoxicity control for non-replicating M. tuberculosis project (AID 489025); type: functional
cells = type: functional
[14] = biological target: Neurotensin receptor type 1 (Homo sapiens, UniProt P30989); type: functional;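 also: Image-based confirmatory dose-response assay measuring agonist activity at NTR1; NTR1-expressing U2OS osteosarcoma cells imaged for beta-arrestin GFP spot formation; agonist potency where compounds increase beta-arrestin recruitment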
[15] = biological target: T3, Microphthalmia-associated transcription factor (Homo sapiens, UniProt O75030); test: TRPM1 promoter luciferase signal decrease, dose response, MITF inhibitor project, cell-based, SK-MEL-5, cherry-picked, set 3 (AID 493073); type: functional
T3 sequence (O75030 whole entry): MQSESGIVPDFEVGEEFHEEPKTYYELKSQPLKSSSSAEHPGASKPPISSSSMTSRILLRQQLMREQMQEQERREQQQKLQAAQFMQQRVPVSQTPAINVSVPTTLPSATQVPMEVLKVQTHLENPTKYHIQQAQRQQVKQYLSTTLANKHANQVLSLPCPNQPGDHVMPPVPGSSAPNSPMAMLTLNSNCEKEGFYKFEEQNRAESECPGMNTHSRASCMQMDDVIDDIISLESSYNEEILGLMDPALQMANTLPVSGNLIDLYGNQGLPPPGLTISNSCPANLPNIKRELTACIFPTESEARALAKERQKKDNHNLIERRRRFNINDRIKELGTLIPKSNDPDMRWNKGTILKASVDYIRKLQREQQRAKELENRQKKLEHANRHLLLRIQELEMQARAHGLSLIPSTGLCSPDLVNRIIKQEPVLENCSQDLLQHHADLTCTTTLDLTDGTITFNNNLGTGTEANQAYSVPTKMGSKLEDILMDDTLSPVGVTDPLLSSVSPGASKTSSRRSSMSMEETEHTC

Protein skinhead-1 = biological target: T4, Protein skinhead-1 (Caenorhabditis elegans, UniProt P34707); type: functional
T4 sequence (P34707 whole entry): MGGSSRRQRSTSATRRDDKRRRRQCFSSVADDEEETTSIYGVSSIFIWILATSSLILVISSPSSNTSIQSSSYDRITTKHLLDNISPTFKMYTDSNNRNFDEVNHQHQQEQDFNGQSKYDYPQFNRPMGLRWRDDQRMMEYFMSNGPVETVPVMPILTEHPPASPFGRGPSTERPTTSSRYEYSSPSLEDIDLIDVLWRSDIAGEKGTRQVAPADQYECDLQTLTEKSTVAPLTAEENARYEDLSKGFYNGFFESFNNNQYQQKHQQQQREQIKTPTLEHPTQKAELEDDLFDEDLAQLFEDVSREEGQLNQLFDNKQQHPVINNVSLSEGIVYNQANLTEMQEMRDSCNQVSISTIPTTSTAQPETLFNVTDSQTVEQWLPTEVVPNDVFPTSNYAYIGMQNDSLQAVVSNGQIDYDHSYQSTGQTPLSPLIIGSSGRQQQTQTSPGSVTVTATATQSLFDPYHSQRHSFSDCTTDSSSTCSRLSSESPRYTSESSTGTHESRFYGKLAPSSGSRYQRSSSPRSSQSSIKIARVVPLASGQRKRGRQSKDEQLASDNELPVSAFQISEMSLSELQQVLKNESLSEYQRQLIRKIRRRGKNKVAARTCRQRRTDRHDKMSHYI

[16] = A cytotoxicity screen of small molecule inhibitors of the PhoP region in Salmonella typhi identified in the primary screen. [Related pubchem assays: 1850, 1864, 1985 ]; type: functional
CHO-K1 = test: (§1) Counterscreen for antagonists of the orexin 1 receptor (OX1R; HCRTR1): Homogeneous time resolved fluorescence (HTRF)-based cell-based dose response assay to identify antagonists of the parental CHO-K1 cell line. [Related pubchem assays (depositor defined):AID434989, AID435008, AID463079, AID485270, AID492963, AID492964, AID492965, AID493232, AID504699, AID504701]; type: functional; conditions: Cricetulus griseus
[17] = as §1, with “Fluorescence-based” for “Homogeneous time resolved fluorescence (HTRF)-based”, “cell-based high throughput” for “cell-based”, “CHO” for “CHO-K1”; type: functional
[18] = biological target: T5, Orexin/Hypocretin receptor type 1 (Homo sapiens, UniProt O43613); test: Homogeneous Time Resolved Fluorescence (HTRF)-based cell-based high throughput dose response assay for antagonists of the orexin 1 receptor (OX1R; HCRTR1). [Related pubchem assays (depositor defined):AID434989, AID435008, AID463079, AID485270, AID492963, AID492964, AID492965, AID493232, AID504717, AID504718]; type: functional
T5 sequence (O43613 whole entry): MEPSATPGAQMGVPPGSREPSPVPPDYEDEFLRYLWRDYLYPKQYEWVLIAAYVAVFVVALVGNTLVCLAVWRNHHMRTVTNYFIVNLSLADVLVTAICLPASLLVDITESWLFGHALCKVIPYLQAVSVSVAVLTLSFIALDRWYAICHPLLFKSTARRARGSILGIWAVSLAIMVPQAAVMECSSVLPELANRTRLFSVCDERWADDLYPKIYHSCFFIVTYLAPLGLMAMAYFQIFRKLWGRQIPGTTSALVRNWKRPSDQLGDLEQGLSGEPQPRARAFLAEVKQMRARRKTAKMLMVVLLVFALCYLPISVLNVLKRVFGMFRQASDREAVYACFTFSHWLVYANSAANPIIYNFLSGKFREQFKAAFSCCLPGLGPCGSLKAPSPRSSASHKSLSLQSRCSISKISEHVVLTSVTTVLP

[19] = biological target: T5, Orexin/Hypocretin receptor type 1; test: Fluorescence-based cell-based high throughput dose response assay for antagonists of the orexin 1 receptor (OX1R; HCRTR1). [Related pubchem assays (depositor defined):AID434989, AID435008, AID463079, AID485270, AID492963, AID492964, AID492965, AID493232, AID504717, AID504718]; type: functional
[20] = biological target: Eukaryotic translation initiation factor 4H (Homo sapiens, UniProt Q15056); test: human eIF4H binding inhibitors, primary screen, translation initiation inhibitor project, biochemical, uHTS, fluorescence polarization (AID 2012)
[21] = biological target: Polyadenylate-binding protein 1 (Homo sapiens, UniProt P11940); test: PABP poly(A) RNA binding inhibitors, primary screen, biochemical, fluorescence polarization, uHTS (AID 2014)
Chain of Polyadenylate-binding protein 1 (P11940 whole entry): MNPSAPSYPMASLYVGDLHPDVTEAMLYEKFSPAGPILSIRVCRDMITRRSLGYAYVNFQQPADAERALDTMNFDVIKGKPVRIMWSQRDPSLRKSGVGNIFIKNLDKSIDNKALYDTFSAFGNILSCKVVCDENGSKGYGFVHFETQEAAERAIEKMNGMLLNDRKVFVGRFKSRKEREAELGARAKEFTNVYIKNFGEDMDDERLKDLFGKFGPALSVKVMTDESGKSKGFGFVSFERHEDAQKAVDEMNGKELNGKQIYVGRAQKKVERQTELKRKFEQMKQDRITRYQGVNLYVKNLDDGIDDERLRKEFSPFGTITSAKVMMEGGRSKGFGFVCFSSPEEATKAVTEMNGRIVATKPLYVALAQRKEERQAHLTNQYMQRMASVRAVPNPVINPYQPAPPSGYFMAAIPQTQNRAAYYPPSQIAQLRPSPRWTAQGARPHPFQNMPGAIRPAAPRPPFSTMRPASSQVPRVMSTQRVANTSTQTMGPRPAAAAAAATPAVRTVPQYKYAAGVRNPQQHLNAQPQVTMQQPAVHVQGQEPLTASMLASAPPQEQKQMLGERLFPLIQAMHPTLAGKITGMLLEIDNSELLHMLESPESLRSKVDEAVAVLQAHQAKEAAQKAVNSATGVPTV

Chain of DNA damage-inducible transcript 3 protein (P35639 whole entry): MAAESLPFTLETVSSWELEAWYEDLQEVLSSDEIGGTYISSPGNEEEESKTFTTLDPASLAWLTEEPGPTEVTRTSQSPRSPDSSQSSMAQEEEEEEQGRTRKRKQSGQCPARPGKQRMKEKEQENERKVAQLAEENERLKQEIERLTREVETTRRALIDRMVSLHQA
T2 sequence (Q00975 whole entry): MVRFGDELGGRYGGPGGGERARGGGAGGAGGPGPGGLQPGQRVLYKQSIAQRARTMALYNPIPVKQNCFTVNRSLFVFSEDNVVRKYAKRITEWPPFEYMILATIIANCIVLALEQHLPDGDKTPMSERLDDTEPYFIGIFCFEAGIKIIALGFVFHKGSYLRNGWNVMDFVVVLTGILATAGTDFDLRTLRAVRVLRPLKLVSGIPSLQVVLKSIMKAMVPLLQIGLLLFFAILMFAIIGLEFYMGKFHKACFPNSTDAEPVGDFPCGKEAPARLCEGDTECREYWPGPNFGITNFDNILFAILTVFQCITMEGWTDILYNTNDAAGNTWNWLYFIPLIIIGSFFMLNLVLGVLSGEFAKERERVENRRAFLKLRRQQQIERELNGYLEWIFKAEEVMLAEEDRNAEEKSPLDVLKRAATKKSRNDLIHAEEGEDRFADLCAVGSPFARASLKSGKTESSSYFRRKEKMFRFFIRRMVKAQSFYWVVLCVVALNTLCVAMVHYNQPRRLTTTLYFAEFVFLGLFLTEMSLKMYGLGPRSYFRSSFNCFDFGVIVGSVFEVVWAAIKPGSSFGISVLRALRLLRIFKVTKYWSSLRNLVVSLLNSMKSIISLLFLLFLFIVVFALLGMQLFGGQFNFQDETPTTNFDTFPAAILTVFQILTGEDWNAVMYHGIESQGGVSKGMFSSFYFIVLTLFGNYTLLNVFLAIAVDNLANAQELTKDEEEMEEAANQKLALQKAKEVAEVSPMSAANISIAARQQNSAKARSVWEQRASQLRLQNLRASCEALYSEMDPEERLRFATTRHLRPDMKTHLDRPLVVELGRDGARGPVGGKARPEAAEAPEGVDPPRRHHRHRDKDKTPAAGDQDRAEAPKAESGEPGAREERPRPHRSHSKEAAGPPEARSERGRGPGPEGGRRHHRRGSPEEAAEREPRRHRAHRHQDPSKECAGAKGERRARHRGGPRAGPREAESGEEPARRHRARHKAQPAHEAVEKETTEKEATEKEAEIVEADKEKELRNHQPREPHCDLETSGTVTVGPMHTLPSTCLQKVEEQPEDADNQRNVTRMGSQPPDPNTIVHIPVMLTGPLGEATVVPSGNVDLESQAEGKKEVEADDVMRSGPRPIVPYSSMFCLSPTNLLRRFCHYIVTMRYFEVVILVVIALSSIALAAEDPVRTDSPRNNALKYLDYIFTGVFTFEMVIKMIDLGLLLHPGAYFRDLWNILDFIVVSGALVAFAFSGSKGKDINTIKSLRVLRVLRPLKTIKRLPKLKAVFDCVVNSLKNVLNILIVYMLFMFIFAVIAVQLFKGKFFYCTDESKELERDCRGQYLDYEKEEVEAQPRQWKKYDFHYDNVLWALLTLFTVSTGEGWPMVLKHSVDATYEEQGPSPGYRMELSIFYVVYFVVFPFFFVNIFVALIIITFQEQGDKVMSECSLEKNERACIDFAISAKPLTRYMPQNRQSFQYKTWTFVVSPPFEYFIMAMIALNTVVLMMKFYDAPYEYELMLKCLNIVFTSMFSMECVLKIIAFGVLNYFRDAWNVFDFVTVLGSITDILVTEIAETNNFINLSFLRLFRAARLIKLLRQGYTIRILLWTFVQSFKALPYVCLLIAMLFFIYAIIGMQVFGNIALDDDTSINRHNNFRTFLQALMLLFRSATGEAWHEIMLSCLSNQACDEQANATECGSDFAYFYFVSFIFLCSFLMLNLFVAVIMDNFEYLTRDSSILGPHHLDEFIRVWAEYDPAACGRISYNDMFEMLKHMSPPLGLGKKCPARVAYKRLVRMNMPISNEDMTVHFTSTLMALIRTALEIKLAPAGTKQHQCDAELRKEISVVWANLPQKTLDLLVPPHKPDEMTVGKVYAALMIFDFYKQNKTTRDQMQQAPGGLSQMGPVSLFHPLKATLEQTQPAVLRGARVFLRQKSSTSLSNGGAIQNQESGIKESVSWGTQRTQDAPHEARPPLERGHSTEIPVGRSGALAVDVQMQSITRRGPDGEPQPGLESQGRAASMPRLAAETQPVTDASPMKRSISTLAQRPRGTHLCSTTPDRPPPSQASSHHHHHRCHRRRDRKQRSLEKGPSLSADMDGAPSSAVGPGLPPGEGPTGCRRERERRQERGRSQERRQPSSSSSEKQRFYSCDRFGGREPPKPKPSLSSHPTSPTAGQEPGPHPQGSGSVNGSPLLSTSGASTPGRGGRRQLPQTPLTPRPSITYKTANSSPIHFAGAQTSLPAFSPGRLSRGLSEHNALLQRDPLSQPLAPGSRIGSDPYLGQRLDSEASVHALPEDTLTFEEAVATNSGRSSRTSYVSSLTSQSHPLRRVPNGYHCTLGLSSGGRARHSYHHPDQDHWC
T2 sequence (Q02410 whole entry): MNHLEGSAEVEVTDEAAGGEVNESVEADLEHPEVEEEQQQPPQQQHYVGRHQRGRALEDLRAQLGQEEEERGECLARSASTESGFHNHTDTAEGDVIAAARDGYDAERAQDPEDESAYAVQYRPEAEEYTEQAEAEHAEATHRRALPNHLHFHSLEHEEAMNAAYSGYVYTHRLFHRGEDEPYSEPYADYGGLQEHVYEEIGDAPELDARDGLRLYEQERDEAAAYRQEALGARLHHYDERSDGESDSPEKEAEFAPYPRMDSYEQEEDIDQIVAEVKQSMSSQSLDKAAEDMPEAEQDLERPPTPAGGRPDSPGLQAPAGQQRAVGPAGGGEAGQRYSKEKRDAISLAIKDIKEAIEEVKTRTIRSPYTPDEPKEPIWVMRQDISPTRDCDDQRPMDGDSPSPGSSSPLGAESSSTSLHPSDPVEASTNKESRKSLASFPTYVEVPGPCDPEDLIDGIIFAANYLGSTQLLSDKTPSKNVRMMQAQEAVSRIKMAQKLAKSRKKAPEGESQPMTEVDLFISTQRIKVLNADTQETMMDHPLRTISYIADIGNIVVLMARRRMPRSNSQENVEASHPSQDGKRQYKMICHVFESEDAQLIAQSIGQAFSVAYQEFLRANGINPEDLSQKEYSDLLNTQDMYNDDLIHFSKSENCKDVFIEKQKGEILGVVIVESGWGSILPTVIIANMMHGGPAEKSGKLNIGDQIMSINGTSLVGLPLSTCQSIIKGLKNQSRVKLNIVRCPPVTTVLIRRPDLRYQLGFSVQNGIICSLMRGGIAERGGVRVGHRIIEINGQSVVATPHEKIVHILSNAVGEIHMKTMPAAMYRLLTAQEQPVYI
Chain of Nucleotide-binding oligomerization domain-containing protein 2 (Q9HC29 whole entry, the tested form may be a part): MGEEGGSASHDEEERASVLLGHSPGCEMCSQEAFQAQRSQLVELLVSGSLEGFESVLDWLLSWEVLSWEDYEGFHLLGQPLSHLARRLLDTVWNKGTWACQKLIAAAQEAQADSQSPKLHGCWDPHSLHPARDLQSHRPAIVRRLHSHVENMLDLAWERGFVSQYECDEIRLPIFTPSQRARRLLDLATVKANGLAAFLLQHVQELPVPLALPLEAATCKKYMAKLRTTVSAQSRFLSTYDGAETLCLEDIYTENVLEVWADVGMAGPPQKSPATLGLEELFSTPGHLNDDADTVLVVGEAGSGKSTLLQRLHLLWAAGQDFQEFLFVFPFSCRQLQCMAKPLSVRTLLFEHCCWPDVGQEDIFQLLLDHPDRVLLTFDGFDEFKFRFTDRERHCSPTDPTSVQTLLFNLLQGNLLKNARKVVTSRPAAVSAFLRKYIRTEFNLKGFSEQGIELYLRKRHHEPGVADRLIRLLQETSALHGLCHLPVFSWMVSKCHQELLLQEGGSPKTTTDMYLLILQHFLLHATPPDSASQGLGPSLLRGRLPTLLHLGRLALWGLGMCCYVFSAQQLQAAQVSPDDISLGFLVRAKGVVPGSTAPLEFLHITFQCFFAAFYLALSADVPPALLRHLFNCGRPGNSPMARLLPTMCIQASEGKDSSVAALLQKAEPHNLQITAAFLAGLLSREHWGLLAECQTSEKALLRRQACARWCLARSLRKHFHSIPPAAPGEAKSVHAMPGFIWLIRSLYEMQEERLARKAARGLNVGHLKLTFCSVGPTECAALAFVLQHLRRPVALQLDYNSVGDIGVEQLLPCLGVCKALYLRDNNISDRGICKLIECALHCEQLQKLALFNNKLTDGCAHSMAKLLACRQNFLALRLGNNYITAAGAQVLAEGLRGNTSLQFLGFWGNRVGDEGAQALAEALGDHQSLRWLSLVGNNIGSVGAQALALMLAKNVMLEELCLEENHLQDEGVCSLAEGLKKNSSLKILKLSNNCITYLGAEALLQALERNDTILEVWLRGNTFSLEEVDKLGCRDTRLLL

With `COc1ccc(C2=NN(C(=O)c3ccco3)C(c3cc4ccccc4nc3Cl)C2)cc1` (centres undefined) the “Absolute IC50 (CHOP)” value [1] was 10 µM.

With `COc1ccc2c(c1)c(=O)oc1c(C)c(OCc3ccc(C(=O)O)cc3)ccc12` the EC50 (HEK293 [2]) was > 20 µM (inactive), the IC50 (HEK293 [3]) was 14.4 µM (active) and the IC50 (HEK293 [4]) was > 20 µM (inactive). The EC50 [5] was > 20 µM (inactive), the IC50 (HEK293 [6]) was > 20 µM (inactive) and the IC50 (HEK293 [7]) was > 20 µM (inactive). For the same compound, the IC50 [8] was 2.01 µM (active).

With `Cc1cccc(N2CCN(C(=O)Cn3sc4nc(C)cc(C)c4c3=O)CC2C)c1` (centres undefined) the IC50 [9] was 16.7 µM (active), the IC50 (Large T antigen) was 18.1 µM (active) and the IC50 [10] was > 50 µM (inactive). The EC50 [11] was 17 µM (active), the EC50 [12] was 17 µM (active) and the CC50 [13] was > 40 µM (active). For the same compound, the IC50 (cells) was 23.8 µM (active).

For `Cn1cc([N+](=O)[O-])c(C(=O)Nc2nc(-c3ccc(Cl)cc3)cs2)n1`, the EC50 [11] was 0.596 µM (active), the EC50 [12] was 0.523 µM (active) and the EC50 [14] was 3.8 µM (active). For the same compound, the AC50 [15] was 10.5 µM (active).

With `FC(F)(F)c1cc(-c2cccs2)nc(-n2cc(Br)cn2)n1` the “Absolute IC50 (CHOP)” value [1] was 10 µM and the IC50 (Protein skinhead-1) was > 100 µM (inactive).

For `Cc1c(C(=O)N2CCN(Cc3ccccc3)CC2)sc2ncnc(N3CCOCC3)c12`, the EC50 [16] was > 50 µM (active).

With `Cc1nc2cc(NC(=O)COc3ccccc3C#N)ccc2n1-c1ccccc1` the IC50 (CHO-K1) was > 66.2 µM (inactive), the IC50 [17] was > 49.7 µM (inactive) and the IC50 [18] was 1.61 µM (active). The IC50 [19] was 3.45 µM (active).

With `O=C(NC(Cc1ccccc1)c1nc2ccccc2[nH]1)C1CC(=O)N(c2ccc3c(c2)OCCO3)C1` (centres undefined) the IC50 [20] was 56.2 µM (active), the IC50 [21] was 8.72 µM (active) and the IC50 [8] was 41.4 µM (active).

Reference: ChEMBL document CHEMBL1201862, “PubChem BioAssay data set” (2004)
